Source: publication PMC4520234 (Journal of medicinal chemistry, 2015)

Columns and labels:
[1] = tested on: mice; experiment: In vivo tolerability in mice, intraperitoneal injection
[2] = tested on: mice; conditions: cited from earlier work
[3] = dogs, cited from earlier work
[4] = Zinc binding by EGTA titration; conditions: EGTA 7.3 mM, PAC-1 derivative 100 μM, Zn(OTf)2 titration, ex. 410 nm, em. 475 nm
[5] = Pharmacokinetics in mice, 25 mg/kg IV injection or oral gavage; type: in vivo, mouse; conditions: 25 mg/kg IV (n = 2)
[6] = i.p. injection 200 mg/kg, graded mild, moderate, severe, or lethal

## C=CCc1cccc(/C=N/NC(=O)CN2CCN(C(=O)c3ccc(F)cc3)CC2)c1O [Compound 7, N′-[2-Hydroxy-3-(2-propenyl)phenylmethylene]-4-(4-fluorobenzoyl)-1-piperazineacetohydrazide]
[1]; [6]
  mouse toxicity IP 200 mg/kg: moderate

## O=C(CN1CCN(C(=O)c2ccc(C(F)(F)F)cc2)CC1)N/N=C/c1cc(F)ccc1O [Compound 27, N′-(5-Fluoro-2-hydroxyphenylmethylene)-4-[4-(trifluoromethyl)benzoyl]-1-piperazineacetohydrazide]
[1]; [6]
  mouse toxicity IP 200 mg/kg: moderate

## C=CCc1cc(F)cc(/C=N/NC(=O)CN2CCN(C(=O)c3ccccc3)CC2)c1O [Compound 30, N′-[5-Fluoro-2-hydroxy-3-(2-propenyl)phenylmethylene]-4-benzoyl-1-piperazineacetohydrazide]
[1]; [6]
  mouse toxicity IP 200 mg/kg: moderate

## C=CCc1cc(F)cc(/C=N/NC(=O)CN2CCN(C(=O)c3ccc(F)cc3)CC2)c1O [Compound 34, N′-[5-Fluoro-2-hydroxy-3-(2-propenyl)phenylmethylene]-4-(4-fluorobenzoyl)-1-piperazineacetohydrazide]
[1]; [6]
  mouse toxicity IP 200 mg/kg: severe

## CCCc1cc(F)cc(/C=N/NC(=O)CN2CCN(C(=O)c3ccc(F)cc3)CC2)c1O [Compound 43, N′-(5-Fluoro-2-hydroxy-3-propylphenylmethylene)-4-(4-fluorobenzoyl)-1-piperazineacetohydrazide]
[1]; [6]
  mouse toxicity IP 200 mg/kg: severe

## C=CCc1cccc(/C=N/NC(=O)CN2CCN(Cc3ccccc3)CC2)c1O [PAC-1, Procaspase-Activating Compound 1]
[1]; mouse, in vivo, ip, 200 mg/kg
  mouse toxicity IP 200 mg/kg: severe
[2]
  serum concentration achieved with few adverse events: approximately 10 μM
[2]; intraperitoneal injection
  maximum tolerated dose: 200 mg/kg
[3]; IV administration
  in vivo half-life: 2.1 ± 0.3 h
[3]
  serum concentration achieved with few adverse events: approximately 10 μM

## O=C(CN1CCN(Cc2ccccc2)CC1)N/N=C/c1ccccc1 [PAC-1a]
[4]
  Zn^2+ Kd: does not bind zinc

## C=CCc1cccc(/C=N/NC(=O)CN2CCN(Cc3ccc(S(N)(=O)=O)cc3)CC2)c1O [S-PAC-1]
[5]
  time post-treatment up to which compound is detectable in serum: 6 h
